Patent US10208056B2, “Condensed tricyclic compounds as protein kinase inhibitors” (FUNDACIÓN DEL SECTOR PÚBLICO ESTATAL CENTRO NACIONAL DE …, priority 2015, dated 2019)
Where two headings read alike, the source gives them in different places.

Legend:
Molm13 = assay: In vitro cell proliferation assay (CellTiter-Glo), Molm13; format: cell-based; details: Homo sapiens, MOLM-13, growth inhibition, read-out: GI50 Molm13
CDK19/Cyclin C = CDK19/Cyclin C (Homo sapiens (Human), UniProt Q9BWU1); assay: CDK19/Cyclin C binding assay (LanthaScreen Eu-Kinase Binding Assay); details: read-out: CDK19-CYCC IC50
Sequence of CDK19/Cyclin C (Q9BWU1 whole entry): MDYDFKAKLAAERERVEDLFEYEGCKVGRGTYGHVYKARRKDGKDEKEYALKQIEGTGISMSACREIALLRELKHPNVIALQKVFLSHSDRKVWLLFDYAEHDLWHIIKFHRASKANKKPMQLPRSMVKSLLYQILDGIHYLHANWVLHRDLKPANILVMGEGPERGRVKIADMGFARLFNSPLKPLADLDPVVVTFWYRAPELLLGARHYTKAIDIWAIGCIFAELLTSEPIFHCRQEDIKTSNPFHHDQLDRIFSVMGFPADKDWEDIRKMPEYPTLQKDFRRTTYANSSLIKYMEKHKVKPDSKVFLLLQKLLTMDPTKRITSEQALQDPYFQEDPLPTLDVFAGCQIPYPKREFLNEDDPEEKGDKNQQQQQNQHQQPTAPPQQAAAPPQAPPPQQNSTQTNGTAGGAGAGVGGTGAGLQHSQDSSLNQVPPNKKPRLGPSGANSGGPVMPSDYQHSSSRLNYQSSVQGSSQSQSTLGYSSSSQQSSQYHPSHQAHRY
Sequence of CDK19/Cyclin C (P24863 whole entry partner): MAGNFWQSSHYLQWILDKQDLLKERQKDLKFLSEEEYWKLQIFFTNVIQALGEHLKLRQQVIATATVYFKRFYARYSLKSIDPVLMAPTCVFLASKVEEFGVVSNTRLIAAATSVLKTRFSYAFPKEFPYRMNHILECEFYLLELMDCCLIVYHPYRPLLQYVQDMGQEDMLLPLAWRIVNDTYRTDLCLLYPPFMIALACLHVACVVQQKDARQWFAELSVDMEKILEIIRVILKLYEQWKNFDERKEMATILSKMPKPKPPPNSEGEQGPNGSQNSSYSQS
Summary of the method: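 LanthaScreen TR-FRET tracer-displacement format with 2 nM Cdk19-Cyclin C, 20 nM tracer and 2 nM Eu-anti-GST antibody. The buffer was 50 mM HEPES pH 7.5, 10 mM MgCl2, 1 mM EGTA, 0.01% Brij-35, with 1% DMSO final. Compounds were tested as 1:3 serial dilutions and incubated for 60 min at 25 °C.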

intracellular CDK8 [1] = target: T1, intracellular CDK8 (Homo sapiens (Human), UniProt P49336); assay: Cellular CDK8 inhibition assay, western blot P-STAT1 (S727) in IFN-γ treated SW620 cells; format: cell-based; details: SW620, IFNγ treated, read-out: SW620 P-STAT1(S727) w IFNγ
T1 sequence (P49336 whole entry): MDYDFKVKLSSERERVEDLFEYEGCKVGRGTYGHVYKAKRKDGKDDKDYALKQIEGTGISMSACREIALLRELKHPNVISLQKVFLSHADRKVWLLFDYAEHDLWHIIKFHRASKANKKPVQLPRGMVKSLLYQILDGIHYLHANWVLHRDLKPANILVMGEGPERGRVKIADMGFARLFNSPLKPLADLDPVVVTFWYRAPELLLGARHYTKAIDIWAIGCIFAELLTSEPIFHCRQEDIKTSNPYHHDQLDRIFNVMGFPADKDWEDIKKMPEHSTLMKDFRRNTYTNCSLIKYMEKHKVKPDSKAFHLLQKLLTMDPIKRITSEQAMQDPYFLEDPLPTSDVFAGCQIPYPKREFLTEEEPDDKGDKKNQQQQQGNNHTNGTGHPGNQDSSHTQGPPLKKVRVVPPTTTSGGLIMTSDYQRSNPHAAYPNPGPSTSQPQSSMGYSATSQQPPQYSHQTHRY
T1 sequence (P24863 whole entry partner): as the sequence (P24863 whole entry partner) above
T1 sequence (Q93074 whole entry partner): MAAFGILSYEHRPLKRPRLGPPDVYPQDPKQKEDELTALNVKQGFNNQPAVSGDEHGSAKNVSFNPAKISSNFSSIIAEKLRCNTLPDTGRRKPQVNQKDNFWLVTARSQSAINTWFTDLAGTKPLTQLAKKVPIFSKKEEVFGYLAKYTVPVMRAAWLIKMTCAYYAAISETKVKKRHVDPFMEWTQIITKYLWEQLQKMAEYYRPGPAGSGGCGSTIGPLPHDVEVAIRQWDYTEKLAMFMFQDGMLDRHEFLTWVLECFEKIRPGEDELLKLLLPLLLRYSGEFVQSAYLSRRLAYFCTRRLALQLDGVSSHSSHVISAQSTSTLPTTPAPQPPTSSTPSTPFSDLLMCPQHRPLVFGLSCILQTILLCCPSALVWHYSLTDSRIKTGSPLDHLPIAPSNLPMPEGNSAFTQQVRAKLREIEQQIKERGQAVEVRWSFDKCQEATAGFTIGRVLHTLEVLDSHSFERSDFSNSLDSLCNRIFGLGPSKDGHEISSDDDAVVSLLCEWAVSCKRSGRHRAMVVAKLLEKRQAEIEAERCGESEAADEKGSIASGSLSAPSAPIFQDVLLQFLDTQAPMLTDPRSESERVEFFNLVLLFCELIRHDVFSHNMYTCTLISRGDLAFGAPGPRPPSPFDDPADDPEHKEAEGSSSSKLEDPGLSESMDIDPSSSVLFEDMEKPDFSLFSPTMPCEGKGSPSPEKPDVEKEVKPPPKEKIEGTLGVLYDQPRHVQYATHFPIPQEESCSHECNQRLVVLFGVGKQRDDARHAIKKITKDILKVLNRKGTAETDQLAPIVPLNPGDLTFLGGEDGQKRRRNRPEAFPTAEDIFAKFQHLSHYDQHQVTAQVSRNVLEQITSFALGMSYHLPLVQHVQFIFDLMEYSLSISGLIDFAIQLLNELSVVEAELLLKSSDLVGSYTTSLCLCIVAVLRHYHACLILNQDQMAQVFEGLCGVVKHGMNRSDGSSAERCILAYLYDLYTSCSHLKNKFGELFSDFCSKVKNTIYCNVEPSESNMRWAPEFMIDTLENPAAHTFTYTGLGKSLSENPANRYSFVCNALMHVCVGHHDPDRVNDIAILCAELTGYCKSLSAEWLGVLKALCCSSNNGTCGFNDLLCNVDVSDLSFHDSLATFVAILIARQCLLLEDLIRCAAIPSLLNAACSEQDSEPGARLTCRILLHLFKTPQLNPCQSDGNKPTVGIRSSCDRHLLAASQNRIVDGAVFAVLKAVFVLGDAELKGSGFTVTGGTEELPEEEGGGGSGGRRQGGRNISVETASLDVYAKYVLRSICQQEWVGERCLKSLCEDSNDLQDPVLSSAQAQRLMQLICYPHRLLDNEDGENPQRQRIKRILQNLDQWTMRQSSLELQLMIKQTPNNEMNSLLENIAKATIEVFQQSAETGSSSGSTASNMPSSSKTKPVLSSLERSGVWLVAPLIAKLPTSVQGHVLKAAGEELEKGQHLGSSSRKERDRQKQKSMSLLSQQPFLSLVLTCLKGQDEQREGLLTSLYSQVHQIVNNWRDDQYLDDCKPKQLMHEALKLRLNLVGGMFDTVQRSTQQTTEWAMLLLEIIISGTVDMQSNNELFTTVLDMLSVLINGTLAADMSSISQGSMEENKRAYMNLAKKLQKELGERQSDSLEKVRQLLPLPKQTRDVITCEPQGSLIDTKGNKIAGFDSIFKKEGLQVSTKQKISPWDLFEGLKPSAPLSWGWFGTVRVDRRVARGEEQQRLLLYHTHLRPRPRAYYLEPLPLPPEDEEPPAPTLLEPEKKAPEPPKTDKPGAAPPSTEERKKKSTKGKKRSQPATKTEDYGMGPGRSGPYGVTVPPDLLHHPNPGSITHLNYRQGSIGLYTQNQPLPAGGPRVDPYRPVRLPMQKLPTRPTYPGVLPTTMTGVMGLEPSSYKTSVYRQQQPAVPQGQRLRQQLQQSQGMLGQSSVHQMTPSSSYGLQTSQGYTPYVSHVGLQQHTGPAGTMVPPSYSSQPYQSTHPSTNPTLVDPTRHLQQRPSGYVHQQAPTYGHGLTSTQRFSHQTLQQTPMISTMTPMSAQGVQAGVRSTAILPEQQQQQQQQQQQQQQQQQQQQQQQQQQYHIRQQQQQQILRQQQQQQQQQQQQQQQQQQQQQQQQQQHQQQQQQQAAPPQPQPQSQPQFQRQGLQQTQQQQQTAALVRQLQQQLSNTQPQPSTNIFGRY

intracellular CDK8 [2] = target: T1, intracellular CDK8; assay: Endogenous phosphoSTAT1 inhibition in SW620 cells growing in 10% FBS; format: cell-based; details: read-out: SW620 P-STAT1(S727)
Summary of the method: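 SW620 cells in 10% FBS treated 8 h with compound, then lysed and phospho-STAT1 measured relative to total STAT1.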

intracellular HASPIN = intracellular HASPIN (Homo sapiens (Human), UniProt Q8TF76); assay: Endogenous phosphoH3 inhibition in SW620 cells growing in 10% FBS; format: cell-based; details: read-out: SW620 pH3(T3)
Sequence of intracellular HASPIN (Q8TF76 whole entry): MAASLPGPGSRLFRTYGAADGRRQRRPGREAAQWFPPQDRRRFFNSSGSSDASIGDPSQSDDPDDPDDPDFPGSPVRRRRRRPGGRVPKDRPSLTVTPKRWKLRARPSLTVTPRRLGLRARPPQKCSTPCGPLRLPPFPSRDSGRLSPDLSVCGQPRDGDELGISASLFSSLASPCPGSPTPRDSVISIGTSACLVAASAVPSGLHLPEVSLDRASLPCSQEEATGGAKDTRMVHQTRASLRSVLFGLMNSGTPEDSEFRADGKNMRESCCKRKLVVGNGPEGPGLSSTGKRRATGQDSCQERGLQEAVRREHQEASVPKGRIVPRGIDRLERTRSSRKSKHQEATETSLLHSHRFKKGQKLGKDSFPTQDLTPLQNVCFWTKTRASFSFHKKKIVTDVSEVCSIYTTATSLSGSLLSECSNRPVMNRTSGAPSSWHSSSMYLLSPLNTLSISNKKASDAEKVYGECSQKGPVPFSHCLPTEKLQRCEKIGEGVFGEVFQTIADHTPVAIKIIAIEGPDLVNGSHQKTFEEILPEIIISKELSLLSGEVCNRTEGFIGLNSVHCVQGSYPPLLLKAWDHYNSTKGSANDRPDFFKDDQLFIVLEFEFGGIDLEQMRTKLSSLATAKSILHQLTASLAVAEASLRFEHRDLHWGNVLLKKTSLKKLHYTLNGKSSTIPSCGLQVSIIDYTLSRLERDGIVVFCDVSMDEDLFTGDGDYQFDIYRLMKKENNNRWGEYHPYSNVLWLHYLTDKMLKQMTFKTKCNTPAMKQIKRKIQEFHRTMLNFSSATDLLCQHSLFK
Protocol: Endogenous phosphoH3 inhibition can be screened in cells growing in 10% FBS. Cells are plated as described before and treated for 8 h with compounds as described before. Then cells are lysated and phospho H3 evaluated as described before. The percentage of phosphorylated H3 vs total H3 in cells treated with DMSO is taken as hundred percent of phosphorylation. The percentage of H3 phosphorylation is finally plotted against concentration for each compound and EC50s for intracellular HASPIN inhibition are calculated using ActivityBase from IDBS.

GI50 (Molm13; semiquantitative) | IC50 (CDK19/Cyclin C) | EC50 (intracellular CDK8 [1]; semiquantitative) | EC50 (intracellular CDK8 [2]; semiquantitative) | EC50 (intracellular HASPIN; semiquantitative) | GI50 (Molm13; quantitative) | EC50 (intracellular CDK8 [2]; quantitative) | EC50 (intracellular HASPIN; quantitative) | EC50 (intracellular CDK8 [1]; quantitative) | Compound
1000 to 10000 nM | 14.2 nM | < 500 nM | – | – | – | – | – | – | NC(=O)c1cc2c([nH]1)-c1ccncc1O[C@H]2C1CCOCC1 (single isomer, unassigned) [Example 72]
< 1000 nM | 1.41 nM | < 500 nM | < 500 nM | < 500 nM | – | – | – | – | CC1(C)Oc2cnccc2-c2c1cc(C(N)=O)n2CCF [Example 52]
< 1000 nM | 16.4 nM | < 500 nM | < 500 nM | < 500 nM | – | – | – | – | CCn1c(C(N)=O)c(-c2ccccc2OC)c2c1-c1ccncc1OC2(C)C [Example 68]
– | 1.09 nM | – | – | – | 349 nM | 1.5 nM | 1.6 nM | 0.064 nM | CCn1c(C(N)=O)cc2c1-c1ccncc1OC2(C)C [Example 43]
